In publication PMC10783034, “Pharmacokinetic and pharmacodynamic evaluation of the atypical tetracyclines chelocardin and amidochelocardin in murine infection models” (Microbiology Spectrum, 2023):
Several values for one entry are separate records, joined by “and”; a condition that tells them apart may be missing. Equal values may be shown once.

Experiment: Pharmacokinetic studies in uninfected CD-1 mice (plasma and urine levels)
Type: in vivo
Conditions: for epimerization in plasma and urine in vivo / urine concentrations at time points > 24 hours / plasma levels at 30 mg/kg IV compared with 15 mg/kg IV / urine levels at 30 mg/kg IV compared with 15 mg/kg IV: mice; for F (bioavailability) / AUC0-t / C0 / Cl/F_obs / MRT / Vz/F_obs / t1/2 (plasma half-life) / Tmax / Cmax: CD-1 mice
Experimental: CHD and CDCHD were administered in single PK studies at the doses of 15 mg/kg and 30 mg/kg IV, at 15 mg/kg SC, and 15 mg/kg PO. Up to 25 µL of blood was collected from the lateral tail vein (n = 3 per time point) and time points t = 0.5, 1, 2, 4, and 8 hours. For 15 mg/kg IV- and PO-administered compounds, blood was also collected at time points t = 24 and 48 hours. For IV- and SC-administered compounds, blood was also collected at t = 0.25 hours. At t = 24 hours (15 mg/kg SC, 30 mg/kg IV) or 72 hours (15 mg/kg IV and PO), animals were euthanized to collect blood. At every blood collection, time point spontaneous urine was collected as well. Whole blood was collected into Eppendorf tubes coated with 0.5 M EDTA and immediately spun down at 15,870× g for 10 min at 4°C. Then, plasma was transferred into a new Eppendorf tube and stored at −80°C until analysis.
First, a calibration curve was prepared by spiking different concentrations of CHD and CDCHD into mouse plasma or mouse urine (matrix for mouse PK or PD samples) from CD-1 mice. Caffeine was used as an internal standard. In addition, quality control samples (QCs) were prepared for CHD and CDCHD in plasma and urine. The following extraction procedures were used: 7.5 µL of a plasma or urine sample (calibration samples, QCs, PK or PD samples) was extracted with 37.5 µL of a mixture of methanol/acetonitrile (2:1) containing 12.5 ng/mL of glipizide as an internal standard for 5 min at 2,000 rpm on an Eppendorf MixMate® vortex mixer. Then samples were spun down at 15,870× g for 10 min. Supernatants were transferred to standard HPLC glass vials.
Samples were analyzed using an Agilent 1290 HPLC system coupled to an AB Sciex QTrap 6500 mass spectrometer. LC conditions were as follows: column: Agilent Zorbax Eclipse Plus C18, 50 × 2.1 mm, 1.8 µm; temperature: 30°C; injection volume: 5 µL per sample; flow rate: 700 µL/min. Samples were run under the following conditions. Solvents for acidic conditions: A: 100% water +0.1% formic acid; solvent B: 100% acetonitrile +0.1% formic acid. The gradient for CDCHD was as follows: 99% A at 0 min, 99% A until 1 min, 99%–50% A from 1 to 2.4 min, 50%–35% A from 2.4 to 2.7 min, 35–0% A from 2.7 until 4.5 min, 0% A until 6 min, 0-99% from 6 to 6.2 min, 99% A until 8.0 min. The gradient for CHD was as follows: 99%–90% A from 0 to 1 min, 90%–55% A from 1 to 2.3 min, 50%–40% A from 2.3 to 2.5 min, 40%–0% A from 2.5 to 4.5 min, 0% A until 6 min, 0%–99% A from 6 to 6.2 min, 99% A until 8.0 min. Mass transitions are depicted in Table S3. Peaks of PK and PD samples were quantified using the calibration curve. The accuracy of the calibration curve was determined using QCs independently prepared on different days. PK parameters were determined using a non-compartmental analysis with PKSolver ([55]).

[1] = plasma, 15 mg/kg IV, for CHD active CHD only

Row | SMILES | epimerization in plasma and urine in vivo (15 mg/kg IV) | urine concentrations at time points > 24 hours (15 mg/kg IV) | F (bioavailability) (15 mg/kg PO, 15 mg/kg) | F (bioavailability) (15 mg/kg SC, 15 mg/kg) | AUC0-t (plasma, 15 mg/kg IV) | C0 (plasma, 15 mg/kg IV) | Cl/F_obs (plasma, 15 mg/kg IV) | MRT (plasma, 15 mg/kg IV) | Vz/F_obs (plasma, 15 mg/kg IV) | C0 [1] | t1/2 (plasma half-life) [1] | AUC0-t (plasma, 15 mg/kg PO) | Cl/F_obs (plasma, 15 mg/kg PO) | MRT (plasma, 15 mg/kg PO) | Tmax (plasma, 15 mg/kg PO) | Vz/F_obs (plasma, 15 mg/kg PO) | AUC0-t (plasma, 15 mg/kg SC) | Cl/F_obs (plasma, 15 mg/kg SC) | MRT (plasma, 15 mg/kg SC) | Vz/F_obs (plasma, 15 mg/kg SC) | other results
1 | Cc1ccc2c(C)c3c(c(O)c2c1O)C(=O)C1(O)C(=O)C(C(N)=O)=C(O)C(N)C1C3 (centres unmarked) [CDCHD, 2-carboxamido-2-deacetyl-chelocardin] | This was not the case for CDCHD | found at high concentrations | 6% and 5.9% | 24% and 23.5% | 13,229.0 ± 1,147.2 ng/mL*h | around 1.3 µg/mL | 16.0 ± 1.4 mL/min/kg | 33.4 ± 8.0 h | 33.4 ± 6.1 L/kg | 1,336.4 ± 523.5 ng/mL | 24.3 ± 5.2 h | 780.9 ± 187.8 ng·h/mL | 294.3 ± 99.2 mL/min/kg | 27.9 ± 7.1 h | 7.3 ± 1.6 h | 394.5 ± 122.6 L/kg | 3,109.3 ± 592.0 ng/mL*h | 34.5 mL/min/kg | 57.3 h | 119.2 L/kg | plasma concentrations of CDCHD relative to the active CHD (15 mg/kg IV, time points > 24 hours, higher than active CHD): 10 fold; Cmax (plasma, 15 mg/kg SC, 15 mg/kg): 171 ng/mL and 171.7 ± 17.7 ng/mL; plasma levels at 30 mg/kg IV compared with 15 mg/kg IV: increased plasma levels (by a factor of more than two); urine levels at 30 mg/kg IV compared with 15 mg/kg IV: in a similar range
2 | CC(=O)C1=C(O)[C@H](N)[C@@H]2Cc3c(c(O)c4c(O)c(C)ccc4c3C)C(=O)[C@]2(O)C1=O [CHD, chelocardin] | epimerization was also observed for CHD in plasma and to a lower extent in urine | already declined | 24% and 24.2% | 90% and 90.2% | 31,550.8 ± 2,722.6 ng/mL*h | more than 4 µg/mL | 7.9 ± 0.6 mL/min/kg | 8.5 ± 0.2 h | 5.6 ± 0.5 L/kg | 4,234.3 ± 1,737.1 ng/mL | 8.2 ± 0.3 h | 7,636.3 ± 840.7 ng/mL*h | 31.0 ± 4.3 mL/min/kg | 19.1 ± 4.1 h | 3.3 ± 1.2 h | 55.5 ± 14.5 L/kg | 28,457.0 ± 4,506.2 ng/mL*h | 8.1 ± 1.1 mL/min/kg | 9.7 ± 1.8 h | 4.8 ± 1.5 L/kg | Cmax of CHD relative to CDCHD (15 mg/kg PO, higher than CDCHD): more than 15 times; plasma levels of CHD relative to CDCHD (15 mg/kg SC, higher than CDCHD): around 10 fold; Cmax (plasma, 15 mg/kg PO): 460.5 ± 58.6 ng/mL; Cmax (plasma, 15 mg/kg SC): 2,109.3 ± 601.9 ng/mL; Tmax (plasma, 15 mg/kg SC): 4.0 ± 0.0 h; Cmax (plasma, 15 mg/kg SC (text)): around 2.1 µg/mL; plasma levels at 30 mg/kg IV compared with 15 mg/kg IV: in a similar range as for the 15 mg/kg IV dose; urine levels at 30 mg/kg IV compared with 15 mg/kg IV: increased urine levels; AUC of CHD relative to CDCHD (plasma, higher than CDCHD, stated in the 15 mg/kg SC paragraph): 3 times
